Results on four molecules are retold here after US11685724B2, “Synthetic intermediates for novel cannabinoids and cannabinoid acids and their derivatives” (priority 2018, dated 2023).

For one assay, the target named is CB1 receptors (Homo sapiens, UniProt P21554). The following applies: cited from earlier work.
In a further assay the target is CB2 (Homo sapiens, UniProt P34972). The following applies: background statement with literature references; cited from earlier work.
A further assay concerns TRPV1 channels. Description: Calcium assay of TRPV1 channel activity in HEK-TRPV1 cells. Format: cell-based. To be noted: Fluo-4 loaded, 1 mM external calcium chloride, 0-20 seconds baseline, compound added at 20 seconds, FIGS. 1A-1D. The procedure:
Molecular Pharmacology, 2016, volume 90, pages 300-308) HEK 293 cells with TRPV1 channels have been used as model systems (P. Geppetti and M. Trevisani, Activation and sensitisation of the vanilloid receptor: role in gastrointestinal inflammation and function, British Journal of Pharmacology, 2004, volume 141, pages 1313-1320);
HEK TRexTRPV1 cultured in DMEM, 10% Fetal Bovine Serum, 2 mM L-glutamine, 10 microgramg/m1 Blasticidin (Calbiochem, San Diego Calif.), […] Zeocin (InvivoGen, San Diego Calif.), followed by inducing indicated transgene expression using 1 microgram/ml Tetracycline for 16-24 hrs. Comparisons made to untransfected HEK cells or HEKTRexTRPV1 with or without induction.
[…] Cells transferred to 96-well plates at 50,000 cells/well and stimulated as indicated. Calcium signals acquired using a Flexstation 3 (Molecular Devices, Sunnydale, USA). Data are analyzed according to the methods in I. Diaz-Franulic, J. Caceres-Molina, R. V. Sepulveda, F. Gonzalez-Nilo, R. Latorre, Structure-Driven Pharmacology of Transient Receptor Potential Channel Vanilloid 1, Molecular Pharmacology, 2016, volume 90, pages 300-8. […]

Setting [1] is: background statement with literature references.

The structures appear in SMILES notation. Read-outs that look alike come from different tables or passages of the source.

Sequence of CB1 receptors (P21554 whole entry): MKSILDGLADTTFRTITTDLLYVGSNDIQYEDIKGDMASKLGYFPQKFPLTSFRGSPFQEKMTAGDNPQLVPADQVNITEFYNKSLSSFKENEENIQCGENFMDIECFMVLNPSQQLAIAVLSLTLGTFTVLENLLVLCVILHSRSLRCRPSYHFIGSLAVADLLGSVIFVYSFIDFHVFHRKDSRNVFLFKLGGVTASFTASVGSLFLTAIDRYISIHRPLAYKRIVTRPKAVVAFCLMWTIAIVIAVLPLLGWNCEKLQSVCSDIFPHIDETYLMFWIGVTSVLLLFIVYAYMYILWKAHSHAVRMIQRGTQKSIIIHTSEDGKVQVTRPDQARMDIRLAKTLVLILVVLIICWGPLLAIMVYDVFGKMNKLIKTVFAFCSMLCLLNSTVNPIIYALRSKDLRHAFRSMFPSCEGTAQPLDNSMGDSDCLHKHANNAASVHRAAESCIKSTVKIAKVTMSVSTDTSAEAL
Sequence of CB2 (P34972 whole entry, species assumed): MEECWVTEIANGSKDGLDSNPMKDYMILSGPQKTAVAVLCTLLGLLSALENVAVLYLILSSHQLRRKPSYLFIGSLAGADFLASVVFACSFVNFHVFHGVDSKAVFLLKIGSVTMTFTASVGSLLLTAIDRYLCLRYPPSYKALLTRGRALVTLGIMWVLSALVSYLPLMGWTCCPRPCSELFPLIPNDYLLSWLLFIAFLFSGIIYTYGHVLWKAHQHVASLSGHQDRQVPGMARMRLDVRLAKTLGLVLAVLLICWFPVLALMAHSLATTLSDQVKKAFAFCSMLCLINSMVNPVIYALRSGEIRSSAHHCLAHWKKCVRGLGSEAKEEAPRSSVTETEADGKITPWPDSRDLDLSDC

For the molecule `C=C(C)[C@@H]1CCC(C)=C[C@H]1c1c(O)cc(CCCCC)cc1O` [cannabidiol (11, CBD), Cannabidiol], on CB1 receptors (setting [1]), the “CB1 receptor modulation (kind of action)” value was “do not interact significantly”. In addition, the “CB2 receptor modulation (kind of action)” value on CB2 is reported as “do not interact significantly”. Moreover, the “biological finger print and dose response on TRPV1 channels (calcium signal), synthesized vs reference standard cannabidiol” value with TRPV1 channels was “same “biological finger print” and dose response”.

In the case of `C=C(C)[C@@H]1CCC(C)=C[C@H]1c1c(O)cc(CCC)cc1O` [cannabidivarin (12), cannabidivarin], the “CB1 receptor modulation (kind of action)” value on CB1 receptors (setting [1]) is on record as “do not interact significantly”. Besides, on CB2, the “CB2 receptor modulation (kind of action)” value was “do not interact significantly”.

In the case of `CCCCCc1cc(O)c2c(c1)OC(C)(C)c1ccc(C)cc1-2` [cannabinol (10), cannabinol], at CB1 receptors, the “CB1 receptor modulation (kind of action)” value is on record as “weak agonist”. Further, the “CB2 receptor modulation (kind of action)” value at CB2 is listed as “modest agonists”.

As for `CCCc1cc(O)c2c(c1)OC(C)(C)[C@@H]1CCC(C)=C[C@@H]21` [tetrahydrocannabivarin (9), tetrahydrocannabivarin], the “CB1 receptor modulation (kind of action)” value on CB1 receptors (setting [1]) is “weak antagonist”. Also, the “CB2 receptor modulation (kind of action)” value at CB2 is reported as “modest agonists”.
